From paper PMC5426640, “A novel multifunctional peptide oligomer of bacitracin with possible bioindustrial and therapeutic applications from a Korean food-source Bacillus strain” (PLoS ONE, 2017)
Where a SMILES comes first, the peptide text is derived from it. Bridges are numbered along the chain shown (N, C = ends). [ ]: non-standard residue; d: D form. The star is where a group is joined. Ileψ(thiazoline)Cys = CC[C@H](C)[C@H](N)C1=N[C@H](C(=O)*)CS1; dOrn = NCCC[C@@H](N)C(=O)O

Experiments:
TNF-α = experiment: ELISA of cytokine production in LPS-stimulated RAW 264.7 cells; type: cell-based, mouse; details: 10–100 μg/mL before LPS 1 μg/mL for 24 h; ELISA of supernatant
Method: (§1) The concentration of nitrite in the supernatant was calculated using a sodium nitrite standard curve. The supernatant was analyzed for TNF-α, IL-1β, and IL-6 by ELISAs using commercial kits (BD Biosciences) according to the manufacturer’s instructions.

IL-6 = experiment: as above; type: cell-based, mouse; details: 10–100 μg/mL before LPS 1 μg/mL for 24 h; ELISA of supernatant
Method: as §1

IL-1β = experiment: as above; type: cell-based, mouse; details: 10–100 μg/mL before LPS 1 μg/mL for 24 h; ELISA of supernatant
Method: as §1

NF-κB (p65) = experiment: Western blot of NF-κB translocation into the nucleus in LPS-stimulated RAW 264.7 cells; type: cell-based, mouse; details: CSP32 1 h prior to LPS 1 μg/mL
Method: (§2) Macrophages were incubated with or without LPS in the presence or absence of the AMPs. Cells were harvested, washed twice with ice-cold Tris-HCl-buffered saline (TBS), and resuspended in lysis buffer [100 mM Tris-HCl, 5 mM EDTA, 50 mM NaCl, 50 mM β- glycerophosphate, 50 mM NaF (sodium fluoride), 0.5% NP-40, 1% sodium deoxycholate, 0.1 mM sodium orthovanadate, and 1% phenylmethylsulfonyl fluoride (PMSF)]. The cytosolic fraction was obtained from the supernatant after […] centrifugation at 4°C for 20 min. Samples (20 μg in terms of protein) were separated by sodium dodecyl sulfate-polyacrylamide gel electrophoresis (SDS-PAGE) in a 10% gel and transferred to polyvinylidene difluoride (PVDF) membranes. The membranes were blocked with 5% nonfat milk in TBS with Tween 20 (0.1%) for 2 h and then incubated with primary antibodies specific for ERK, phospho-ERK, JNK, phospho-JNK, p38 MAPK, phospho-p38 MAPK (all them from Cell Signaling Technology), NF-κB, IκB, and phospho-IκB (1:1000; Santa Cruz Biotechnology). […] After three washes with TBS–Tween 20, the membrane was hybridized with an HRP-conjugated secondary antibody for 1 h. […] The immunoreactive proteins were detected by means of a LAS-3000 Luminescent image analyzer (Fuji Photo Film Co., Ltd., Tokyo, Japan).

[1] = test system: NO production in LPS-stimulated RAW 264.7 cells; experiment: LPS-induced NO production, Griess reaction; type: cell-based, mouse; details: 10, 50, or 100 μg/mL; LPS 1 μg/mL, 24 h; Griess reagent
Method: NO levels in the culture supernatants were measured by the Griess reaction. Cells (10^6 cells/mL) were seeded in 6-well plates and pretreated with the indicated concentrations of AMP for 30 min before stimulation with 1 μg/mL LPS for 24 h. The sample supernatants were mixed with an equal volume of the Griess reagent (1% sulfanilamide in 5% phosphoric acid and 0.1% naphthyl ethylene diamine dihydrochloride), and then incubated at room temperature for 10 min. The absorbance was measured at 550 nm on a microplate reader (Thermo Fisher Co.). The nitrite concentration was determined using a dilution of sodium nitrite as a standard.

IL-1β mRNA = experiment: RT-PCR of mRNA expression in LPS-stimulated RAW 264.7 cells; type: cell-based, mouse; details: 10, 50, or 100 μg/mL, LPS 2–12 h, GAPDH control
Method: (§3) Total RNA from the AMP-treated cells was prepared using the RNAiso Reagent (Takara) and was stored at −80°C until use. For the detection of iNOS, COX-2, TNF-α, IL-Iβ, and IL-6, total RNA was extracted after stimulation and treatment. The mRNA expression levels of iNOS, COX-2, TNF-α, IL-Iβ, and IL-6 in the treated cells were compared to the expression levels in control cells. One microgram of RNA was reverse-transcribed into cDNA and used as a template for PCR amplification. PCR was performed on a DNA Gene Cycler, under the following conditions: 40 cycles of denaturation at 94°C for 30 s, annealing at 58°C for 30 s, and primer extension at 72°C for 40 s. PCR products were analyzed on 1% agarose gels, and bands were visualized by ethidium bromide staining.

TNF-α mRNA = experiment: as above; type: cell-based, mouse; details: 10, 50, or 100 μg/mL, LPS 2–12 h, GAPDH control
Method: as §3

IL-6 mRNA = experiment: as above; type: cell-based, mouse; details: 10, 50, or 100 μg/mL, LPS 2–12 h, GAPDH control
Method: as §3

COX-2 mRNA = experiment: as above; type: cell-based, mouse; details: 10, 50, or 100 μg/mL, LPS 2–12 h, GAPDH control
Method: as §3

iNOS mRNA = experiment: as above; type: cell-based, mouse; details: 10, 50, or 100 μg/mL, LPS 2–12 h, GAPDH control
Method: as §3

IκBα = experiment: Western blot of IκBα phosphorylation in LPS-stimulated RAW 264.7 cells; type: cell-based, mouse; details: CSP32 1 h prior to LPS 1 μg/mL
Method: as §2

[2] = test system: Micrococcus luteus ATCC 9341; experiment: pH stability, residual antimicrobial activity; type: physicochemical; details: 1 h at room temperature, residual antimicrobial activity vs indicator strain, n = 3
Method: (§4) After heat treatment (30–121°C, 10–60 min), the samples were tested for residual antimicrobial activity against indicator strain Micrococcus luteus ATCC 9341. Effects of pH on antimicrobial activity were estimated by varying the pH levels. Samples were diluted in the following buffers: citrate with Na2HPO4 (pH 3.0–7.0), Tris-HCl (pH 7.0–9.0), and NaHCO3 with NaOH (pH 10.0–11.0). After incubation for 1 h at room temperature, pH in the samples was adjusted to 7.0, and the samples were tested for antimicrobial activity against the indicator strain. The AMP was digested with various proteolytic enzymes at a final concentration of 1 mg/mL: […] (50 mM Tris-HCl, pH 7.5), protease K (50 mM Tris-HCl, pH 7.5), α-chymotrypsin (50 mM Tris-HCl, pH 7.5), or trypsin (50 mM Tris-HCl, pH 8.0). After 1-h incubation at room temperature, the enzymes were boiled for 2 min for inactivation.

[3] = test system: Micrococcus luteus ATCC 9341; experiment: Thermostability, residual antimicrobial activity; type: physicochemical; details: residual antimicrobial activity vs Micrococcus luteus ATCC 9341, mean ± SD, n = 3
Method: as §4

JNK = experiment: Western blot of LPS-induced MAPK phosphorylation in RAW 264.7 cells; type: cell-based, mouse; details: 10–100 μg/mL, LPS 1 μg/mL
Method: Macrophages were incubated with or without LPS in the presence or absence of the AMPs. Cells were harvested, washed twice with ice-cold Tris-HCl-buffered saline (TBS), and resuspended in lysis buffer [100 mM Tris-HCl, 5 mM EDTA, 50 mM NaCl, 50 mM β- glycerophosphate, 50 mM NaF (sodium fluoride), 0.5% NP-40, 1% sodium deoxycholate, 0.1 mM sodium orthovanadate, and 1% phenylmethylsulfonyl fluoride (PMSF)]. The cytosolic fraction was obtained from the supernatant after […] centrifugation at 4°C for 20 min. Samples (20 μg in terms of protein) were separated by sodium dodecyl sulfate-polyacrylamide gel electrophoresis (SDS-PAGE) in a 10% gel and transferred to polyvinylidene difluoride (PVDF) membranes. The membranes were blocked with 5% nonfat milk in TBS with Tween 20 (0.1%) for 2 h and then incubated with primary antibodies specific for ERK, phospho-ERK, JNK, phospho-JNK, p38 MAPK, phospho-p38 MAPK (all them from Cell Signaling Technology), NF-κB, IκB, and phospho-IκB (1:1000; Santa Cruz Biotechnology). […] After three washes with TBS–Tween 20, the membrane was hybridized with an HRP-conjugated secondary antibody for 1 h. The membranes were washed three times for 10 min and developed with the ECL Western Blotting Detection System (GE Healthcare, Incheon, Republic of Korea,). The immunoreactive proteins were detected by means of a LAS-3000 Luminescent image analyzer (Fuji Photo Film Co., Ltd., Tokyo, Japan).

SMILES: CC[C@H](C)[C@H](N)C1=N[C@H](C(=O)N[C@@H](CC(C)C)C(=O)N[C@H](CCC(=O)O)C(=O)N[C@H](C(=O)N[C@H]2CCCCNC(=O)[C@H](CC(N)=O)NC(=O)[C@@H](CC(=O)O)NC(=O)[C@H](Cc3c[nH]cn3)NC(=O)[C@@H](Cc3ccccc3)NC(=O)[C@H]([C@@H](C)CC)NC(=O)[C@@H](CCCN)NC2=O)[C@@H](C)CC)CS1 [CSP32] ({Ileψ(thiazoline)Cys}-L[dE]IK[dOrn]I[dF]H[dD]N; lactam 4-C; N-terminus assumed)
- Effect on LPS-induced TNF-α release (TNF-α): significantly attenuated
- Effect on LPS-induced IL-6 release (IL-6): significantly attenuated
- Effect on LPS-induced IL-1β release (IL-1β): significantly attenuated
- Effect on LPS-induced changes in the levels of p65 in the nucleus and cytoplasm (NF-κB (p65)): attenuated
- Effect on LPS-induced NO production [1]: attenuated the LPS-induced production of NO to a statistically significant extent
- Effect on LPS-induced IL-1β mRNA expression (IL-1β mRNA): dose-dependently attenuated the LPS-enhanced expression
- Effect on LPS-induced TNF-α mRNA expression (TNF-α mRNA): dose-dependently attenuated the LPS-enhanced expression
- Effect on LPS-induced IL-6 mRNA expression (IL-6 mRNA): dose-dependently attenuated the LPS-enhanced expression
- Effect on LPS-induced COX-2 mRNA expression (COX-2 mRNA): significantly attenuated iNOS and COX-2 mRNA upregulation in a dose-dependent manner
- Effect on LPS-induced iNOS mRNA expression (iNOS mRNA): significantly attenuated iNOS and COX-2 mRNA upregulation in a dose-dependent manner
- Effect on LPS-increased level of p-IκBα (IκBα): attenuated by CSP32 treatment (dose dependently)
- Residual activity (%) ([2]; pH 2, then adjusted to pH 7.0, mean ± SD, SD): 61.33±1.04%
- Residual activity (%) ([2]; pH 3, citrate with Na2HPO4, then adjusted to pH 7.0, mean ± SD, SD): 63.00±1.04%
- Residual activity (%) ([2]; pH 4, citrate with Na2HPO4, then adjusted to pH 7.0, mean ± SD, SD): 89.60±3.44%
- Residual activity (%) ([2]; pH 6, citrate with Na2HPO4, then adjusted to pH 7.0, mean ± SD, SD): 100±0.50%
- Residual activity (%) ([2]; pH 7): 100%
- Residual activity (%) ([2]; pH 8, Tris-HCl, then adjusted to pH 7.0, mean ± SD, SD): 100±0.20%
- Residual activity (%) ([2]; pH 9, Tris-HCl, then adjusted to pH 7.0, mean ± SD, SD): 100±1.15%
- Residual activity (%) ([2]; pH 10, NaHCO3 with NaOH, then adjusted to pH 7.0, mean ± SD, SD): 98±3.38%
- Residual activity (%) ([2]; pH 11, NaHCO3 with NaOH, then adjusted to pH 7.0, mean ± SD, SD): 91.33±0.06%
- Residual activity (%) ([2]; pH 12, then adjusted to pH 7.0, mean ± SD, SD): 91.77±0.06%
- Residual activity (%) ([3]; heat treatment 30°C, 10 min): 100%
- Residual activity (%) ([3]; heat treatment 30°C, 30 min, SD): 100±0.28%
- Residual activity (%) ([3]; heat treatment 30°C, 60 min, SD): 100±0.34%
- Residual activity (%) ([3]; heat treatment 50°C, 10 min, SD): 100±0.94%
- Residual activity (%) ([3]; heat treatment 50°C, 30 min, SD): 98.40±0.39%
- Residual activity (%) ([3]; heat treatment 50°C, 60 min, SD): 98.07±0.36%
- Residual activity (%) ([3]; heat treatment 70°C, 10 min, SD): 98.07±0.41%
- Residual activity (%) ([3]; heat treatment 70°C, 30 min, SD): 98.00±0.41%
- Residual activity (%) ([3]; heat treatment 70°C, 60 min, SD): 98.07±0.39%
- Residual activity (%) ([3]; heat treatment 90°C, 10 min, SD): 97.73±1.04%
- Residual activity (%) ([3]; heat treatment 121°C, 15 min, SD): 65.40±0.17%
- Effect on LPS-induced phosphorylation of JNK (JNK): Phosphorylation decreased in a dose-dependent manner
